From patent US20240238214A1, “NANOCONSTRUCTS AND NANOPARTICLE-MEDIATED DELIVERY OF IMMUNOGENIC CELL DEATH INDUCERS FOR ENHANCING CANCER IMMUNOTHERAPY” (Purdue Research Foundation, priority 2021, published 2024)
Converted amounts (≈) assume the structure as drawn.

Key:
[1] = system: CT26 cells; assay: In vivo tumor vaccination study; parameters: species or system Balb/c mice; conditions: cells treated at 100× IC50 for 24 hours; three million dead cells; 500,000 live CT26 cells after 9 days
Protocol: The vaccination study, a standard test to verify bona fide ICD, was performed with PTX and CFZ (e.g., the candidate drugs) in vivo. The vaccination study involved generating tumor antigens by exposing tumor cells to lethal dose of ICD inducers. Potential ICD inducer-treated cells (i.e., the primary dose) were injected subcutaneously to immunocompetent mice. One week later, live tumor cells were injected on the contralateral side (i.e., the rechallenge), and the growth of the tumor was monitored to determine if the drug-killed tumor cells (i.e., the primary dose) can serve as a vaccine and prevent the growth of a live cell challenge.
Dead cells were collected and washed with PBS twice to remove excess amount of the drug.
Three million dead cells were injected into the right flanks of 6-week-old immunocompetent female Balb/c mice (i.e., the primary dose), the syngeneic host of CT26 cells. After 9 days, 500,000 live CT26 cells (live tumor cells) were inoculated subcutaneously in the contralateral side of the mice (i.e., the rechallenge) and tumor growth was monitored to determine the development of anti-tumor immunity.

[2] = system: CT26 murine carcinoma, B16F10 murine carcinoma and 4T1 breast mammary carcinoma cells; assay: HMGB1 release into medium (western blot); assay type: cell-based; conditions: treated at IC50 for 24 hours; supernatant
Protocol: After 24 hours, supernatants were collected, and a western blot immunoassay was performed to determine the amount of HMGB1 present.

[3] = system: CT26 murine carcinoma, B16F10 murine carcinoma and 4T1 breast mammary carcinoma cells; assay: CRT exposure on cell surface (flow cytometry); assay type: cell-based; conditions: treated at IC50 for 6 hours; compared to control groups
Protocol: (§1) The release of DAMPs from the treated cells were then analyzed (e.g., CRT exposure was measured by flow cytometry, HMGB1 was measured by quantifying western blot, and ATP was measured by ATP determination kit).
After 6 hours, cells were washed with PBS and fixed with 4% […] (PFA). Fixed cells were incubated with FITC-labeled CRT antibodies. Cells were analyzed by the Accuri C6 flow cytometer to determine the population of CRT-positive cells.

[4] = biological target: T1, apyrase (Solanum tuberosum, UniProt P80595); assay: ATP level after incubation with apyrase (ATP bioluminescence assay); assay type: biochemical; conditions: 10 μM ATP, 5 units/mL apyrase, 37° C., 10 minutes
T1 construct: purchased Thermo Fisher Scientific Inc. (Waltham, MA)
T1 sequence (P80595 1-454): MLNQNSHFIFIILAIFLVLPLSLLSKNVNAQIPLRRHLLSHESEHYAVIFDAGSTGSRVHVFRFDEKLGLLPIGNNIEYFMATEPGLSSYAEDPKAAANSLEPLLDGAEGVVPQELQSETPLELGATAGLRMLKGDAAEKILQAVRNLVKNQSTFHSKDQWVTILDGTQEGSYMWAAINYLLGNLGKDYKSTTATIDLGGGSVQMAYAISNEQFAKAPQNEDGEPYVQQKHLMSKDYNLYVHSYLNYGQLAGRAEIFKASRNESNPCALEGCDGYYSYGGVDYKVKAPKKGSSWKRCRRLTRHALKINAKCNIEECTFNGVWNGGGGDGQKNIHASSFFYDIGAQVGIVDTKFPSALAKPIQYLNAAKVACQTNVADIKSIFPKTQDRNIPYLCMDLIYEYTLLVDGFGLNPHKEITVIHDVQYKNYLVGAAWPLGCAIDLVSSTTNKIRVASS
Protocol: Further, to confirm the activity of apyrase against ATP, 10 μM ATP was incubated with or without 5 units/mL apyrase in 37° C. for 10 minutes. The ATP level after incubation was measured by ATP bioluminescence assay.

[5] = system: JAWSII cells; assay: Stability against apyrase (DC migration assay in Transwell); assay type: cell-based, murine; conditions: 10 μM ATP, 0.5 units of apyrase, 4 hours
Protocol: To screen the effect of degrading enzyme to the nanoparticle-bound ATP, apyrase (a CD39 equivalent) was co-incubated with ATP or NP-pD-ATP, and a DC migration assay was performed in a Transwell (FIG. 9A). For the migration assay, 100 μL of 2×10^5 JAWSII cells, suspended in media, were added to the top of the Transwell (8 μm pore size). 600 μL of media containing 10 μM ATP conjugated nanoparticle was added to the bottom well (with or without 0.5 units of apyrase). Cells were incubated in 37° C. for 4 hours. Bottom media was collected to analyze the number of cells migrated by flow cytometry.

[6] = system: CT26 cells phagocytosed by JAWSII DCs; assay: Phagocytosis assay; assay type: cell-based, murine; conditions: CT26 treated with IC50 of drug, co-cultured with JAWSII for 24 hours
Protocol: A phagocytosis assay was performed to observe whether cells killed by ICD inducers will be taken up by dendritic cells (DCs).
CT26 cells were stained with Cell Tracker Green for 30 mins (0.5 μM) and washed once with cold serum free DMEM. CT26 cells were incubated overnight in 10% FBS media to allow any unbound dye to be inactivated. CT26 cells were collected and seeded (150,000 cells/well) in 6 wells plate for 24 hours. JAWSII cells were collected and stained with Cell Tracker Deep Red for 30 mins (0.5 μM) and washed once with cold serum free RPMI. JAWSII cells were incubated overnight in 10% FBS media to allow any unbound dye to be inactivated. […] After the treatment, CT26 containing 6 wells plate was centrifuged at 500 g×8 mins. Supernatant was aspirated to remove any remaining drugs. JAWSII cells (150,000 cells/well) were added to CT26, and cells were co-cultured for 24 hours. The co-cultured cells were collected, resuspended in the staining buffer, and analyzed by the Accuri C6 flow cytometer.

[7] = system: CT26 murine carcinoma; assay: Cytotoxicity by MTT assay, CT26; assay type: cell-based; conditions: Mus musculus; CT26 cells
Protocol: (§2) As the nanoparticles hereof can be used to deliver ICD inducers to create tumor antigens, which need to be taken up by APCs, in certain embodiments, it is important for the formulations to kill tumor cells, while saving the host immune cells.
Cytotoxicity was assessed by the MTT assay. CT26 cells were seeded in 96 wells with 3,000 cells/well and cultured until 30% confluency. Cells were treated with varying concentrations of Drug, Drug@NP, Drug@NP-pD, Drug@NP-pD-ATP for 24 hours. After 24 hours, media was replaced, the cells were incubated for an additional 24 hours, and an MTT assay was performed to measure the number of viable cells present (see FIGS. 13A and 14A).

[8] = cited from earlier work
[9] = physchem; conditions: aqueous with cosolvent or surfactant or cyclodextrin
[10] = system: CT26 murine carcinoma, B16F10 murine carcinoma and 4T1 breast mammary carcinoma cells; assay: ATP secretion into medium (ATP determination kit); assay type: cell-based; conditions: treated at IC50 for 24 hours; supernatant
Protocol: as §1
After 24 hours, supernatants were collected, and the amount of ATP in the supernatant was measured with ATP determination kit.

[11] = system: JAWSII DCs; assay: Cytotoxicity by MTT assay, JAWSII; assay type: cell-based, murine; conditions: 96 hours
Protocol: as §2
For JAWSII cells, JAWSII cells were seeded in 96 wells with 20,000 cells/well.

SMILES | tumor growth after live CT26 rechallenge in mice vaccinated with drug-treated dead cells [1] | HMGB1 release [2] | CRT exposure [3] | ATP level after incubation with apyrase [4] | chemotactic ability (DC migration) in the presence of apyrase [5] | uptake of CT26 to the dendritic cells [6] | IC50 [7] [nM] | water solubility [8] [µg/mL] | solubility [9] [µg/mL] | ATP secretion [10] | concentration with sudden decrease of DC viability [11] [µM]
Nc1ccn([C@@H]2O[C@H](CO)[C@@H](O)C2(F)F)c(=O)n1 [GEM, gemcitabine] | Tumors grew in all animals | failed to induce HMGB1 secretion | failed to induce CRT exposure | – | – | – | – | – | – | – | –
O=C1[O][Pt]2([NH][C@@H]3CCCC[C@H]3[NH]2)[O]C1=O [OXA, oxaliplatin] | tumors did not grow | induced the release of HMGB1 | – | – | – | – | – | – | – | – | –
Nc1ncnc2c1ncn2[C@@H]1O[C@H](COP(=O)(O)OP(=O)(O)OP(=O)(O)O)[C@@H](O)[C@H]1O [free ATP, adenosine triphosphate] | – | – | – | not detectable | completely abolished the chemotactic ability of free ATP | – | – | – | – | – | –
CC(C)C[C@H](NC(=O)[C@H](CCc1ccccc1)NC(=O)CN1CCOCC1)C(=O)N[C@@H](Cc1ccccc1)C(=O)N[C@@H](CC(C)C)C(=O)[C@@]1(C)CO1 [CFZ, carfilzomib] | tumors did not grow | induced the release of HMGB1 | induced the exposure of CRT | – | – | significantly increased the uptake of CT26 to the dendritic cells | 15 | 0.7 to 3.6 | 9 (≈ 12.5 µM) | caused the secretion of ATP | –
CC(=O)O[C@H]1C(=O)[C@@]2(C)[C@H]([C@H](OC(=O)c3ccccc3)[C@]3(O)C[C@H](OC(=O)[C@H](O)[C@@H](NC(=O)c4ccccc4)c4ccccc4)C(C)=C1C3(C)C)[C@]1(OC(C)=O)CO[C@@H]1C[C@@H]2O [PTX, paclitaxel] | tumors did not grow | induced the release of HMGB1 | induced the exposure of CRT | – | – | significantly increased the uptake of CT26 to the dendritic cells | 250 | – | – | caused the secretion of ATP | ≥ 30
